{"source": "patent US5294618A", "about": "“Octahydrobenzisoquinoline derivatives as antipsychotic agents” (Merck Sharp & Dohme Limited, priority 1989, dated 1994)", "key": {"[1]": {"settings": "Indian J. Chem., Sect. B, 1979, 17, 239; cited from earlier work"}, "sigma recognition site": {"test_system": "sigma recognition site", "settings": "cited from earlier work"}, "dopamine D2 receptors": {"test_system": "dopamine D2 receptors", "settings": "cited from earlier work"}, "[2]": {"test_system": "N-methyl-D-aspartate (NMDA) ion-channel complex", "settings": "cited from earlier work"}, "sigma sites": {"target": "T1, sigma sites (Mus musculus, UniProt O55242)", "T1 construct": "displace tritiated sigma ligands in vivo; from tissue; host or cells: sites in the living animal after s.c. dosing", "T1 sequence (O55242 whole entry)": "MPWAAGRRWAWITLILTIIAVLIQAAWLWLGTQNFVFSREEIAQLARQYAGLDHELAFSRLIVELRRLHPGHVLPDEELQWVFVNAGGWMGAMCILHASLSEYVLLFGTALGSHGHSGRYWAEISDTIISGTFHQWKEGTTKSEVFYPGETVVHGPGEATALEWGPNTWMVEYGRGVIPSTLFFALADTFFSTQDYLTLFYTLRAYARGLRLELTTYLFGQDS", "assay": "Displacement of tritiated (+)-SKF 10047 sigma ligand in vivo", "settings": "sc, s.c. dosing, read-out: effective dose for displacing 50% of ligand (ED50)", "experimental": "The ability of the test compounds to displace tritiated sigma ligands in vivo was determined by a modification of the method of Ferris et al., Life Sci., 1986, 38, 2329. In these experiments the sigma ligand used was tritiated (+)-SKF 10047."}}, "data": [{"compound": "O=C(CCCN1CCC2c3ccccc3CCC2C1)c1ccc(F)cc1", "note": "(stereo not drawn) [3-[3-(4-fluorobenzoyl)propyl]-1,2,3,4,4a,5,6,10b-octahydrobenz[f]isoquinoline]", "values": [{"measurement": "CNS depressant activity", "setting": "[1]", "value": "weak CNS depressant activity"}, {"measurement": "hypotensive activity", "setting": "[1]", "value": "significant hypotensive activity"}]}, {"compound": "O=C(CCCN1CCC(O)(c2ccc(Cl)cc2)CC1)c1ccc(F)cc1", "note": "[haloperidol]", "values": [{"measurement": "relative potency at sigma sites versus D2 receptors", "setting": "sigma recognition site; sigma sites and D2 receptors", "value": "equally potently"}]}, {"compound": "C[C@@H]1CN(CCCn2c3ccccc3c3ccccc32)C[C@H](C)N1", "note": "[rimcazole]", "values": [{"measurement": "potency/affinity at sigma sites", "setting": "sigma recognition site", "value": "only moderate potency"}, {"measurement": "activity at dopamine D2 receptors", "setting": "dopamine D2 receptors", "value": "essentially inactive"}]}, {"compound": "C=CCN1CCC2(C)c3cc(O)ccc3CC1C2C", "note": "(stereo not drawn) [N-allylnormetazocine (SKF 10047), N-allylnormetazocine]", "values": [{"measurement": "potency/affinity at sigma sites", "setting": "sigma recognition site", "value": "having an affinity"}, {"measurement": "interaction with NMDA ion-channel complex", "setting": "[2]", "value": "interacts strongly"}]}, {"compound": "c1ccc2c(c1)CC[C@@H]1CN(C3CCCCC3)CC[C@@H]21", "note": "(relative stereo) [Example 4, trans-3-Cyclohexyl-1,2,3,4,4a,5,6,10b-octahydrobenz[f]isoquinoline]", "values": [{"measurement": "ED50", "setting": "sigma sites", "value": "< 1", "unit": "mg/kg"}]}, {"compound": "CCCCN1CC[C@H]2c3ccccc3CC[C@@H]2C1", "note": "(relative stereo) [Example 2, trans-3-Butyl-1,2,3,4,4a,5,6,10b-octahydrobenz[f]isoquinoline]", "values": [{"measurement": "ED50", "setting": "sigma sites", "value": "< 1", "unit": "mg/kg"}]}]}
